Data reported in patent US11597724B2, “Herbicidally active 3-phenylisoxazoline-5-carboxamides of tetrahydro and dihydrofuran carboxylic acids and esters” (Bayer Aktiengesellschaft, priority 2017, dated 2023).

Columns and labels:
Assay type in all cases: in vivo
[1] = Post-emergence treatment, summary over harmful plants; details: 504 h, application rate of 0.32 kg of active substance or less per hectare, read-out: herbicidal action, post-emergence treatment (very good herbicidal activity)
Procedure: 2. Post-Emergence Herbicidal Action and Crop Plant Compatibility
(§1) Seeds of monocotyledonous and dicotyledonous weeds and crop plants are placed in sandy loam in plastic or wood-fiber pots, covered with soil and cultivated in a greenhouse under controlled growth conditions. 2 to 3 weeks after sowing, the test plants are treated at the one-leaf stage. The compounds of the invention, formulated in the form of wettable powders (WP) or as emulsion concentrates (EC), are then sprayed onto the green parts of the plants as aqueous suspension or emulsion with addition of 0.5% additive at a water application rate of 600 l/ha (converted). After the test plants had been kept in the greenhouse under optimum growth conditions for about 3 weeks, the activity of the preparations is rated visually in comparison to untreated controls. For example, 100% activity=the plants have died, 0% activity=like control plants.
As shown by the results, compounds according to the invention such as, for example, the compounds No. I-35 and other compounds from the tables (for example I-28, I-38, I-01, I-19, I-36, I-29, I-32, I-11, I-12, I-37, I-06, I-09, I-33, I-34, I-13, I-04, I-26, I-21, I-30, I-05, I-03, I-20, I-27, I-14, I-10, I-23, I-07, I-25, I-02, I-08, I-24, I-41, I-42, I-43, I-44, I-46, I-49, I-54, I-55, I-56) have, when used for post-emergence treatment, very good herbicidal activity (80% to 100% herbicidal action) against harmful plants such as Abutilon theophrasti, Alopecurus myosuroides, Amaranthus retroflexus, Avena fatua, Echinochloa crus-galli, Hordeum murinum, Lolium rigidum, Pharbitis purpurea, Polygonum convolvulus, Setaria viridis, Stellaria media, Veronica persica and Viola tricolor at an application rate of 0.32 kg of active substance or less per hectare.

Stellaria media [2] = assay: Post-emergence herbicidal activity against STEME; details: Stellaria media, 504 h, dosage 320 g/ha, rated about 3 weeks after treatment
How it was run: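 Greenhouse plants treated at one-leaf stage, 2–3 weeks after sowing, by spraying WP or EC formulations with 0.5% additive at 600 l/ha water. Visual rating about 3 weeks later versus untreated controls (100% = plants dead, 0% = like controls).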

Echinochloa crus-galli = assay: Post-emergence herbicidal activity against ECHCG; details: Echinochloa crus-galli, 504 h, dosage 320 g/ha, rated about 3 weeks after treatment
How it was run: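 Greenhouse pot plants sprayed post-emergence at one-leaf stage (2-3 weeks after sowing) with WP or EC formulations, 0.5% additive, 600 l/ha water. Visual rating about 3 weeks later versus untreated controls: 100% = plants dead, 0% = like control.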

Lolium rigidum = assay: Post-emergence herbicidal activity against LOLRI; details: Lolium rigidum, 504 h, dosage 320 g/ha, rated about 3 weeks after treatment
How it was run: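 Greenhouse-grown plants sprayed post-emergence at the one-leaf stage, 2 to 3 weeks after sowing, with WP or EC formulations plus 0.5% additive at 600 l/ha water. Activity rated visually after about 3 weeks versus untreated controls (100% = plants dead, 0% = like control).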

Amaranthus retroflexus = assay: Post-emergence herbicidal activity against AMARE; details: Amaranthus retroflexus, 504 h, dosage 320 g/ha, rated about 3 weeks after treatment
Procedure: as §1, with “AMARE: Amaranthus retroflexus AVEFA: Avena fatua 2. Post-Emergence Herbicidal Action and Crop Plant Compatibility Seeds” for “Seeds”

Stellaria media [3] = assay: Pre-emergence herbicidal activity against STEME; details: Stellaria media, 504 h, dosage 80 g/ha
Text: 1. Pre-Emergence Herbicidal Action and Crop Plant Compatibility Seeds of monocotyledonous and dicotyledonous weed plants and crop plants are placed in plastic or wood fiber pots and covered with soil. The compounds of the invention, formulated in the form of wettable powders (WP) or as emulsion concentrates (EC), are then applied onto the surface of the covering soil as aqueous suspension or emulsion with addition of 0.5% additive at a water application rate of 600 l/ha (converted). After the treatment, the pots are placed in a greenhouse and kept under good growth conditions for the trial plants. After about 3 weeks, the effect of the preparations is scored visually in comparison with untreated controls as percentages. For example, 100% activity=the plants have died, 0% activity=like control plants. STEME: Stellaria media VERPE: Veronica persica

COC(=O)[C@H]1C[C@@H](NC(=O)[C@@]2(C)CC(c3cc(F)cc(F)c3)=NO2)CO1 (mixture of isomers) [I-09, methyl cis-4-[[(5R)-3-(3,5-difluorophenyl)-5-methyl-4H-isoxazole-5-carbonyl]amino]tetrahydrofuran-2-carboxylate] gave a pest or weed control at 320 g/ha [1] of 80 to 100%, a pest or weed control at 320 g/ha (Stellaria media [2]) of 90% and a pest or weed control at 320 g/ha (Echinochloa crus-galli) of 80%.

In the case of COC(=O)[C@H]1C[C@H](NC(=O)[C@@]2(C)CC(c3cc(F)cc(F)c3)=NO2)CO1 (mixture of isomers) [I-55, methyl trans-4-[[(5R)-3-(3,5-difluorophenyl)-5-methyl-4H-isoxazole-5-carbonyl]amino]tetrahydrofuran-2-carboxylate], the pest or weed control at 320 g/ha [1] is reported as 80 to 100%, the pest or weed control at 320 g/ha (Lolium rigidum) is reported as 90% and the pest or weed control at 320 g/ha (Amaranthus retroflexus) is reported as 80%. The pest or weed control at 320 g/ha (Stellaria media [2]) was 90% and the pest or weed control at 320 g/ha (Echinochloa crus-galli) was 90%.

C=C[C@]1(C(=O)N[C@@H]2CO[C@@H](C(=O)OC)C2)CC(c2cc(F)cc(F)c2)=NO1 (mixture of isomers) [I-56, methyl trans-4-[[(5S)-3-(3,5-difluorophenyl)-5-vinyl-4H-isoxazole-5-carbonyl]amino]tetrahydrofuran-2-carboxylate] gave a pest or weed control at 320 g/ha [1] of 80 to 100%, a pest or weed control at 320 g/ha (Lolium rigidum) of 90% and a pest or weed control at 320 g/ha (Amaranthus retroflexus) of 90%. For the same compound, the pest or weed control at 320 g/ha (Stellaria media [2]) was 90% and the pest or weed control at 320 g/ha (Echinochloa crus-galli) was 90%.

COC(=O)[C@H]1C[C@@H](NC(=O)C2(C)CC(c3cc(F)cc(F)c3)=NO2)CO1 (relative stereo) [I-01, methyl cis-4-[[3-(3,5-difluorophenyl)-5-methyl-4H-isoxazole-5-carbonyl]amino]tetrahydrofuran-2-carboxylate] showed a pest or weed control at 320 g/ha [1] of 80 to 100%, a pest or weed control at 320 g/ha (Amaranthus retroflexus) of 80% and a pest or weed control at 320 g/ha (Stellaria media [2]) of 90%. It also gave a pest or weed control at 80 g/ha (Stellaria media [3]) of 90% and a pest or weed control at 320 g/ha (Echinochloa crus-galli) of 90%.

With C=CC1(C(=O)N[C@H]2CO[C@@H](C(=O)OC)C2)CC(c2cc(Cl)cc(Cl)c2)=NO1 (relative stereo) [I-03, methyl cis-4-[[3-(3,5-dichlorophenyl)-5-vinyl-4H-isoxazole-5-carbonyl]amino]tetrahydrofuran-2-carboxylate] the pest or weed control at 320 g/ha [1] was 80 to 100%, the pest or weed control at 320 g/ha (Stellaria media [2]) was 90% and the pest or weed control at 320 g/ha (Echinochloa crus-galli) was 80%.

In the case of COC(=O)[C@H]1C[C@@H](NC(=O)C2(C)CC(c3cc(C)cc(Br)c3)=NO2)CO1 (relative stereo) [I-04, methyl cis-4-[[3-(3-bromo-5-methylphenyl)-5-methyl-4H-isoxazole-5-carbonyl]amino]tetrahydrofuran-2-carboxylate], the pest or weed control at 320 g/ha [1] is reported as 80 to 100%, the pest or weed control at 320 g/ha (Stellaria media [2]) is reported as 90% and the pest or weed control at 320 g/ha (Echinochloa crus-galli) is reported as 90%.

COC(=O)[C@H]1C[C@@H](NC(=O)C2(OC)CC(c3cc(F)cc(F)c3)=NO2)CO1 (relative stereo) [I-05, methyl cis-4-[[3-(3,5-difluorophenyl)-5-methoxy-4H-isoxazole-5-carbonyl]amino]tetrahydrofuran-2-carboxylate] gave a pest or weed control at 320 g/ha [1] of 80 to 100%, a pest or weed control at 320 g/ha (Stellaria media [2]) of 90% and a pest or weed control at 320 g/ha (Echinochloa crus-galli) of 90%.

Compound COC(=O)[C@H]1C[C@@H](NC(=O)C2(C(F)(F)F)CC(c3cc(F)cc(F)c3)=NO2)CO1 (relative stereo) [I-06, methyl cis-4-[[3-(3,5-difluorophenyl)-5-(trifluoromethyl)-4H-isoxazole-5-carbonyl]amino]tetrahydrofuran-2-carboxylate] has a pest or weed control at 320 g/ha [1] of 80 to 100%, a pest or weed control at 320 g/ha (Amaranthus retroflexus) of 80% and a pest or weed control at 320 g/ha (Stellaria media [2]) of 80%. For the same compound, the pest or weed control at 320 g/ha (Echinochloa crus-galli) was 90%.

With C=CC1(C(=O)N[C@H]2CO[C@@H](C(=O)OC)C2)CC(c2cccc(F)c2)=NO1 (relative stereo) [I-07, methyl cis-4-[[3-(3-fluorophenyl)-5-vinyl-4H-isoxazole-5-carbonyl]amino]tetrahydrofuran-2-carboxylate] the pest or weed control at 320 g/ha [1] was 80 to 100%, the pest or weed control at 320 g/ha (Stellaria media [2]) was 90% and the pest or weed control at 320 g/ha (Echinochloa crus-galli) was 80%.

COC(=O)[C@H]1C[C@@H](NC(=O)C2(OC)CC(c3cc(C)cc(Br)c3)=NO2)CO1 (relative stereo) [I-08, methyl cis-4-[[3-(3-bromo-5-methylphenyl)-5-methoxy-4H-isoxazole-5-carbonyl]amino]tetrahydrofuran-2-carboxylate] gave a pest or weed control at 320 g/ha [1] of 80 to 100% and a pest or weed control at 320 g/ha (Echinochloa crus-galli) of 90%.

Compound COC(=O)[C@H]1C[C@@H](NC(=O)C2(OC)CC(c3ccccc3)=NO2)CO1 (relative stereo) [I-14, methyl cis-4-[(5-methoxy-3-phenyl-4H-isoxazole-5-carbonyl)amino]tetrahydrofuran-2-carboxylate] has a pest or weed control at 320 g/ha [1] of 80 to 100%, a pest or weed control at 320 g/ha (Stellaria media [2]) of 90% and a pest or weed control at 320 g/ha (Echinochloa crus-galli) of 80%.

For C=CC1(C(=O)NC2=C(C(=O)OCC)COC2)CC(c2cc(F)cc(F)c2)=NO1 (stereo not shown) [I-23, ethyl 4-[[3-(3,5-difluorophenyl)-5-vinyl-4H-isoxazole-5-carbonyl]amino]-2,5-dihydrofuran-3-carboxylate], the pest or weed control at 320 g/ha [1] was 80 to 100%, the pest or weed control at 320 g/ha (Lolium rigidum) was 90% and the pest or weed control at 320 g/ha (Amaranthus retroflexus) was 80%. The pest or weed control at 320 g/ha (Stellaria media [2]) was 90% and the pest or weed control at 320 g/ha (Echinochloa crus-galli) was 90%.

Work on COC(=O)C1COCC1NC(=O)C1(OC)CC(c2cc(F)cc(F)c2)=NO1 (stereo not shown) [I-27, methyl 4-[[3-(3,5-difluorophenyl)-5-methoxy-4H-isoxazole-5-carbonyl]amino]tetrahydrofuran-3-carboxylate] yielded a pest or weed control at 320 g/ha [1] of 80 to 100%, a pest or weed control at 320 g/ha (Stellaria media [2]) of 80% and a pest or weed control at 80 g/ha (Stellaria media [3]) of 90%.

COC(=O)C1COCC1NC(=O)C1(OC)CC(c2cc(Cl)cc(Cl)c2)=NO1 (stereo not shown) [I-29, methyl 4-[[3-(3,5-dichlorophenyl)-5-methoxy-4H-isoxazole-5-carbonyl]amino]tetrahydrofuran-3-carboxylate] showed a pest or weed control at 320 g/ha [1] of 80 to 100%, a pest or weed control at 320 g/ha (Stellaria media [2]) of 80% and a pest or weed control at 80 g/ha (Stellaria media [3]) of 90%. It also gave a pest or weed control at 320 g/ha (Echinochloa crus-galli) of 90%.

Work on COC(=O)C1=C[C@H](NC(=O)C2(C)CC(c3cccc(F)c3)=NO2)CO1 (stereo partly drawn) [I-39, methyl (3S)-3-[[3-(3-fluorophenyl)-5-methyl-4H-isoxazole-5-carbonyl]amino]-2,3-dihydrofuran-5-carboxylate] yielded a pest or weed control at 320 g/ha (Lolium rigidum) of 100%, a pest or weed control at 320 g/ha (Amaranthus retroflexus) of 80% and a pest or weed control at 320 g/ha (Stellaria media [2]) of 90%. For the same compound, the pest or weed control at 320 g/ha (Echinochloa crus-galli) was 100%.

For COC(=O)[C@@]1(OC)C[C@@H](NC(=O)C2(C)CC(c3cccc(F)c3)=NO2)CO1 (stereo partly drawn) [I-47, methyl (2R,4R)-4-[[3-(3-fluorophenyl)-5-methyl-4H-isoxazole-5-carbonyl]amino]-2-methoxytetrahydrofuran-2-carboxylate], the pest or weed control at 320 g/ha (Lolium rigidum) was 100%, the pest or weed control at 320 g/ha (Stellaria media [2]) was 90% and the pest or weed control at 320 g/ha (Echinochloa crus-galli) was 100%.
